# From patent publication US20170318812A1, “Plant and Crop Growth Regulating/Biostimulant Formulations and Methods of Use” (Arysta Lifescience North America, LLC, priority 2014, published 2017)
# Where “and” joins values, the source holds several entries; their conditions need not be identical. Identical values can stand only once.
# Legend:
# selected crops and weeds = assay: Post emergent treatment of a range of selected crops and weeds (FIGS. 1-13), measured and visual observation; format: in vivo
# Description: (§1) The original objective of this Example was to evaluate the herbicidal effect of ipfencarbazone when applied as a post emergent treatment to a range of selected crops and weeds. Unexpectedly, crop plant growth stimulation was observed. The actual species of weeds and crops are listed in the summary data tabulated below and in FIGS. 1-13. By convention each plant species has a Bayer code (5-letter name) with the scientific name for the plant referenced in FIGS. 1-13. In each Figure, each tray contains the same configuration of weeds and/or crops. In each Figure there is one replication of each treatment (six treatments in total). The top three photographs in each Figure show the Bayer Codes and bottom three photographs are aligned with the top three facilitating viewing of the same plant species. Throughout the Examples various abbreviations as conventional shorthand notation and will be appreciated by those skilled in the art. Some exemplary abbreviations include, “CV”=Co-efficient of Variation,” “LSD”=Least Significant Difference” (G/L (gram per L) AND GA/L (gram of active ingredient per L); “SC”=suspension concentrate formulation. The diluent in all treatments was water. By convention factors that are identical in all treatments (e.g. diluent and surfactant) are not listed in each treatment.
# (§2) Methods: The indicated size pots (see Tables below) are filled with a specific soil, the soil properties being indicated below. The referenced crops and weeds are planted by hand in each pot. […] The experiments include six treatments each replicated three times on each crop/weed species. At a specific time after emergence each crop and weed species was treated with ipfencarbazone plus a non-ionic surfactant (NIS). In the present Example, the surfactant employed was ENERGIC™ (non-ionic surfactant). The application timing is indicated in each of the Tables (1 or 2 leaf stage) below. Ipfencarbazone plus surfactant was diluted in water and applied at a rate equivalent to about 250 L/ha. Ipfencarbazone was applied using a track sprayer. After treatment, the pots were randomized in a greenhouse. At each assessment (indicated by “days after treatment” or DAT) the height of each plant was measured. The letters next to each mean indicate the level of statistical significance.
# [1] = test system: GLXMA Glycine max (Soybean); assay: Ipfencarbazone biostimulant effect, early post emergence foliar application, greenhouse pots, plant height: soybean; format: in vivo; conditions: for HEIGHT, percent of untreated check (APoC) / HEIGHT, treatment mean / HEIGHT, single plots (replicates): GLXMA BMXPOTENCIA; for Plant HEIGHT, Mean / Plant HEIGHT, single plots: Soybean BMXPOTENCIA
# Description: as §1, §2
# Replications: 3, Untreated treatments: 1, Design: Randomized Complete Block (RCB), Treatment units: Treated ‘Plot’ experimental unit size, Dry Form. Unit: %, Treated ‘Plot’ experimental unit size Width: 1 meter, Treated ‘Plot’ experimental unit size Length: 1.4 meters, Application volume: 250 L/ha, Mix size: 0.15 liters, […]
# [2] = 28 DA-A, 62.5 g ai/ha + Energic NIS 0.2 % v/v
# [3] = 28 DA-A, 125 g ai/ha + Energic NIS 0.2 % v/v
# [4] = 28 DA-A, 250 g ai/ha + Energic NIS 0.2 % v/v
# [5] = 28 DA-A, 1000 g ai/ha + Energic NIS 0.2 % v/v
structure (smiles),measurement,setting,value
"CC(C)N(C(=O)n1cnn(-c2ccc(Cl)cc2Cl)c1=O)c1ccc(F)cc1F [ARY-0572-001, ipfencarbazone]",effect on crop plant seedlings (growth),"selected crops and weeds; about 60 to about 125 grams per hectare, corn, wheat, soybean and dry bean seedlings",positive effect
same,impact on plant growth,"selected crops and weeds; applied post emergent, all crop and weed species evaluated, all use rates","significant, positive impact on plant growth"
same,"growth rate (biomass, leaf area, plant height)","selected crops and weeds; early post treatment, wheat, sorghum, corn, soybean, dry bean and cotton",meaningful increase in growth rate
same,herbicidal effect,"selected crops and weeds; higher rates, 500 and 1000 g a.i./ha, specific crops and weeds",some herbicidal effect
same,plant color (visual observation),selected crops and weeds; treated plants compared to the untreated control,significant greening effect
same,"HEIGHT, percent of untreated check (APoC)","[1]; 62.5 g ai/ha, 15 DA-A",(113.4%)
same,"HEIGHT, treatment mean","[1]; 62.5 g ai/ha, 15 DA-A",15.0 a cm and 15.0 cm
same,"HEIGHT, single plots (replicates)","[1]; 62.5 g ai/ha, 15 DA-A, plots 102, 205, 302",15.3 cm and 14.8 cm (2×)
same,"HEIGHT, percent of untreated check (APoC)","[1]; 62.5 g ai/ha, 28 DA-A",(146.3%)
same,"HEIGHT, treatment mean","[1]; 62.5 g ai/ha, 28 DA-A",30.6a cm
same,"HEIGHT, percent of untreated check (APoC)","[1]; 125 g ai/ha, 15 DA-A",(84.9%)
same,"HEIGHT, treatment mean","[1]; 125 g ai/ha, 15 DA-A",11.2 abc cm and 11.2 cm
same,"HEIGHT, single plots (replicates)","[1]; 125 g ai/ha, 15 DA-A, plots 103, 206, 305",6.2 cm and 13.5 cm and 14.0 cm
same,"HEIGHT, percent of untreated check (APoC)","[1]; 125 g ai/ha, 28 DA-A",(113.8%)
same,"HEIGHT, treatment mean","[1]; 125 g ai/ha, 28 DA-A",23.8 ab cm
same,"HEIGHT, percent of untreated check (APoC)","[1]; 250 g ai/ha, 15 DA-A",(71.8%)
same,"HEIGHT, treatment mean","[1]; 250 g ai/ha, 15 DA-A",9.5 bcd cm and 9.5 cm
same,"HEIGHT, single plots (replicates)","[1]; 250 g ai/ha, 15 DA-A, plots 104, 201, 306",8.3 cm and 10.8 cm and 9.3 cm
same,"HEIGHT, percent of untreated check (APoC)","[1]; 250 g ai/ha, 28 DA-A",(87.8%)
same,"HEIGHT, treatment mean","[1]; 250 g ai/ha, 28 DA-A",18.3 bc cm
same,"HEIGHT, percent of untreated check (APoC)","[1]; 500 g ai/ha, 15 DA-A",(45.4%)
same,"HEIGHT, treatment mean","[1]; 500 g ai/ha, 15 DA-A",6.0 d cm and 6.0 cm
same,"HEIGHT, single plots (replicates)","[1]; 500 g ai/ha, 15 DA-A, plots 105, 202, 301",8.0 cm and 1.3 cm and 8.7 cm
same,"HEIGHT, percent of untreated check (APoC)","[1]; 500 g ai/ha, 28 DA-A",(63.3%)
same,"HEIGHT, treatment mean","[1]; 500 g ai/ha, 28 DA-A",13.2 c cm
same,"HEIGHT, percent of untreated check (APoC)","[1]; 1000 g ai/ha, 15 DA-A",(65.5%)
same,"HEIGHT, treatment mean","[1]; 1000 g ai/ha, 15 DA-A",8.7 cd cm and 8.7 cm
same,"HEIGHT, single plots (replicates)","[1]; 1000 g ai/ha, 15 DA-A, plots 106, 203, 304",6.7 cm and 10.0 cm and 9.3 cm
same,"HEIGHT, percent of untreated check (APoC)","[1]; 1000 g ai/ha, 28 DA-A",(71.3%)
same,"HEIGHT, treatment mean","[1]; 1000 g ai/ha, 28 DA-A",14.9 bc cm
same,"Plant HEIGHT, Mean",[1]; [2],30.6 cm
same,"Plant HEIGHT, single plots",[1]; [2],32.7 cm and 29.3 cm and 29.7 cm
same,"Plant HEIGHT, Mean",[1]; [3],23.8 cm
same,"Plant HEIGHT, single plots",[1]; [3],20.7 cm and 22.7 cm and 28.0 cm
same,"Plant HEIGHT, Mean",[1]; [4],18.3 cm
same,"Plant HEIGHT, single plots",[1]; [4],20.3 cm and 21.7 cm and 13.0 cm
same,"Plant HEIGHT, Mean","[1]; 28 DA-A, 500 g ai/ha + Energic NIS 0.2 % v/v",13.2 cm
same,"Plant HEIGHT, Mean",[1]; [5],14.9 cm
same,"Plant HEIGHT, single plots",[1]; [5],9.0 cm and 18.0 cm and 17.7 cm
